Results on three compounds are retold here after ChEMBL document CHEMBL3352762 (J Med Chem, 2014).

The structures appear in SMILES notation. The source made the active and inactive calls. The rule behind the calls is not given here. Peptide text beside a SMILES is read from it. A value given as a limit tells only on which side of the number the result lay.

In data set [1] the target is T1, Urotensin-2 receptor (Rattus norvegicus) (UniProt P49684).
T1 sequence (whole entry): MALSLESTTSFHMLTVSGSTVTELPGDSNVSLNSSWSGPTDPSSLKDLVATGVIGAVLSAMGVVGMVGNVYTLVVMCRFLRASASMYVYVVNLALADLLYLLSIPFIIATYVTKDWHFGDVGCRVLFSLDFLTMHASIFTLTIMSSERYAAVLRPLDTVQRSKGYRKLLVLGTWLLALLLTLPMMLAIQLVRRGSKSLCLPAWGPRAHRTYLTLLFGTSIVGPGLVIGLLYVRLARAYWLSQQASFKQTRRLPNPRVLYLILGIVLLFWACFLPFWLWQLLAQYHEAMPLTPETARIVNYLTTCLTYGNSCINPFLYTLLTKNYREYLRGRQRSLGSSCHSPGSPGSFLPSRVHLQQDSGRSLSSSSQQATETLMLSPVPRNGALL
The experiment in a line: Agonist activity at UT receptor in rat aorta assessed as contraction. Type of data set: tissue-based.

Data set [2] addresses T2, Urotensin-2 receptor (Homo sapiens) (UniProt Q9UKP6).
T2 sequence (whole entry): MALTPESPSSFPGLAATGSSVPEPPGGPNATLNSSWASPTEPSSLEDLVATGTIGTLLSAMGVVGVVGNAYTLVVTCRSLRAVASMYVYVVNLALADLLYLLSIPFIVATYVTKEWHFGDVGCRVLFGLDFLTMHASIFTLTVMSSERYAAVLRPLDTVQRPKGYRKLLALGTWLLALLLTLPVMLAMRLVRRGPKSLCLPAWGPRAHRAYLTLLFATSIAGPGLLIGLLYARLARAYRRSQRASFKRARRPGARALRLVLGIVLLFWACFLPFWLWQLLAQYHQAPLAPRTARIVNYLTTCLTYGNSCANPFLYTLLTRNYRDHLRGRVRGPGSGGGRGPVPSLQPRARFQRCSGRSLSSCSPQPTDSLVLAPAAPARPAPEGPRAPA
As to the kind of experiment: Partial agonist activity at human recombinant UT receptor expressed in CHO-K1 cells assessed as stimulation of intracellular calcium mobilization by FLIPR assay. Type of data set: functional, cell-based. (Calcium assays in cells follow changes in intracellular calcium, usually with a dye or a luminescent sensor.)

Data set [3] has as its target T2, Urotensin-2 receptor (Homo sapiens). As to the kind of experiment: Partial agonist activity at human recombinant UT receptor expressed in CHO-K1 cells assessed as stimulation of intracellular calcium mobilization at 1 uM by FLIPR assay relative to urotensin-2. The class given is functional, cell-based.
Data set [4] has the same target. As to the kind of experiment: Partial agonist activity at human recombinant UT receptor expressed in CHO-K1 cells assessed as stimulation of intracellular calcium mobilization at 10 uM by FLIPR assay relative to urotensin-2. The class given is functional, cell-based.
Data set [5] has as its target T1, Urotensin-2 receptor (Rattus norvegicus). As to the kind of experiment: Agonist activity at UT receptor in rat aorta assessed as contraction relative to urotensin-2. Type of data set: tissue-based.
Data set [6] shares this target. As to the kind of experiment: Competitive antagonist activity at UT receptor in rat aorta assessed as effect on urotensin-2-induced contraction. Type of data set: tissue-based.
Data set [7] can be described thus: Stability in 25% fetal calf serum assessed as parent compound remaining at 80 uM at 37 degC after 36 hrs by RP-HPLC-UV based detection assay. Type of data set: ADME, Bos taurus. The note with it: cattle, read-out: Stability.
Data set [8] has as its target T3, Urotensin-2 receptor (Homo sapiens, UniProt Q9UKP6).
T3 sequence (Q9UKP6 whole entry): T2 sequence (whole entry)
The experiment in a line: Displacement of [125I]urotensin-2 from human recombinant UT receptor expressed in CHO-K1 cells by scintillation counting method. Type of data set: cell-based. On the technique in general: In a radioligand displacement assay an active substance lowers the binding of a labelled ligand.

The nature of data set [9]: Stability in 25% fetal calf serum assessed as parent compound remaining at 80 uM at 37 degC after 16 hrs by RP-HPLC-UV based detection assay. Type of data set: ADME, Bos taurus. The note with it: cattle, read-out: Stability.

By Emax is commonly meant the greatest response seen or fitted, relative to the assay's reference. By pKb is commonly meant the negative decadic logarithm of the Kb, by convention in mol/L. As to `CC(C)[C@H](NC(=O)[C@@H]1CSSC(C)(C)[C@@H](NC(=O)[C@@H](N)CC(=O)O)C(=O)N[C@@H](Cc2ccccc2)C(=O)N[C@H](Cc2c[nH]c3ccccc23)C(=O)N[C@@H](CCCN)C(=O)N[C@@H](Cc2ccc(O)cc2)C(=O)N1)C(=O)O` (HELM PEPTIDE1{D.[CC(C)(S[*:3])[C@@H](N[*:1])C(=O)[*:2]].F.[dW].[Orn].Y.C.V}$PEPTIDE1,PEPTIDE1,2:R3-7:R3$$$V2.0), in data set [1], the pEC50 entry is “inactive”. The result in [2] was Active. The Efficacy in [3] worked out at 43.3%; in [4], 46.2%. In data set [5], the Emax is 0%. Besides, the negative-log Kb (pKb) in data set [6] was 8.32.
The term Ki denotes a measure of affinity in units of concentration, obtained from inhibition or displacement. As to `CC(C)[C@H](NC(=O)[C@@H]1CSSC(C)(C)[C@H](NC(=O)[C@@H](N)CC(=O)O)C(=O)N[C@@H](Cc2ccccc2)C(=O)N[C@H](Cc2c[nH]c3ccccc23)C(=O)N[C@@H](CCCN)C(=O)N[C@@H](Cc2ccc(C#N)cc2)C(=O)N1)C(=O)O`, the pEC50 result in data set [1] is “inactive”. In addition, in [2], the outcome was Active. In data set [7], the remaining at 36 h, 80 µM is greater than 50%. Also, the Efficacy in [3] came to 61.4%; in data set [4], 61.7%. For the same compound, the Emax in [5] is 0%. For the same compound, the pKb in [6] was determined as 8.15. In addition, the Ki in data set [8] is 12 nM. Besides, the remaining at 16 h, 80 µM in data set [9] was greater than 70%.
As to `CC(C)[C@H](NC(=O)[C@@H]1CSSC(C)(C)[C@H](NC(=O)[C@@H](N)CC(=O)O)C(=O)N[C@@H](Cc2ccccc2)C(=O)N[C@H](Cc2c[nH]c3ccccc23)C(=O)N[C@@H](CCCN)C(=O)N[C@@H](Cc2ccc([N+](=O)[O-])cc2)C(=O)N1)C(=O)O`, the pEC50 entry in data set [1] is “inactive”. Moreover, the outcome in data set [2] was Active. Besides, the Efficacy in data set [3] worked out at 56.5%; in data set [4], 61.2%. Moreover, the Emax in data set [5] came to 0%. The pKb in data set [6] came to 8.12. In addition, the Ki in [8] was 17 nM.
